Experimental data: PMC10847579, “Recording ten-fold larger IKr conductances with automated patch clamping using equimolar Cs^+ solutions” (Frontiers in Physiology, 2024)

Experiments:
hERG channel [1] = target: T1, hERG channel (Homo sapiens, UniProt Q12809); experiment: Automated patch clamp (Nanion Patchliner) of hERG current in CHO-hERG cells with K+ solutions; format: cell-based
T1 construct: host or cells: CHO cre/lox hERG
Procedure: (§1) A cell passage was performed twice a week and kept under 20 passages for optimal cell quality. […] Thereafter, the cells were resuspended in 1.7 mL external K^+ solution.
(§2) After sample preparation, experiments on CHO cells were performed at 22°C on the Nanion® Patchliner system (Nanion Technologies, Munich, Germany) with a EPC-10 Quadro Amplifier (HEKA, Reutlingen, Germany) controlled by Patchmaster 2.90.5. Recordings were performed using membrane capacitance and series resistance compensation (70%). The chip (NPC-16 medium resistance, Nanion Technologies) was filled with either the K^+ or Cs^+ internal and external solution with a resistance between 2 and 4 MOhm. Thereafter, the cells were added to the chip. After the capture of a cell, the seal enhancer solution was added, obtaining a Rseal of at least 200 MOhm. Next, the chip was flushed with an external solution. During the experiment, four cells were measured simultaneously in separate chambers of the chip.
(§3) For all experiments, the drugs were incubated for 60 s before measuring and an activation pulse of +20 mV and −80 mV both for 500 m was given to open the channel and achieve the steady-state ion channel–drug interaction.
For Cs^+-based experiments, the cells were depolarized from a holding potential of −80 mV in 10-mV increments between −70 mV and +40 mV for 3 s. Thereafter, the cell was clamped back to −80 mV for 2 s, followed by a hyperpolarization step to −100 mV for 50 ms before returning to −80 mV. In K^+-based experiments, the cells were clamped at a holding potential of −80 mV before a hyperpolarizing step to −120 mV for 10 ms and returned to −80 mV for 50 ms before cells were depolarized from −60 mV to 60 mV in 10-mV increments for 1 s. Thereafter, the cells were clamped back to −50 mV for 500 ms and finally returned to −80 mV. The interval between sweeps was 10 s for both protocols.
For the stock solutions, the drugs were dissolved in ddH2O and for the working solution diluted in either the K^+ or Cs^+ external solution. The different concentrations per compound were sequentially tested on the same cell.
For all measured currents, the current densities (pA/pF) were determined by normalizing for the membrane capacitance. The current densities were converted to conductance densities (pS/pF) using reversal potentials calculated using the Nernst equation for the solution and temperature used.
Dose–response curves were made with the tail current values at 40 mV, which were the largest current densities.
All averages are expressed as mean ± SEM for the (maximal) conductance values and IC50 values. To determine the amount of block, a two-way ANOVA with Dunnett’s test was performed with the maximal conductance values. […]

hERG channel [2] = target: T1, hERG channel; experiment: Automated patch clamp (Nanion Patchliner) of hERG current in CHO-hERG cells with equimolar Cs+ solutions; format: cell-based
Procedure: as §1, §2, §3
For Cs^+-based experiments, the cells were depolarized from a holding potential of −80 mV in 10-mV increments between −70 mV and +40 mV for 3 s. Thereafter, the cell was clamped back to −80 mV for 2 s, followed by a hyperpolarization step to −100 mV for 50 ms before returning to −80 mV. In K^+-based experiments, the cells were clamped at a holding potential of −80 mV before a hyperpolarizing step to −120 mV for 10 ms and returned to −80 mV for 50 ms before cells were depolarized from −60 mV to 60 mV in 10-mV increments for 1 s. […]
For all measured currents, the current densities (pA/pF) were determined by normalizing for the membrane capacitance. The current densities were converted to conductance densities (pS/pF) using reversal potentials calculated using the Nernst equation for the solution and temperature used. […]
All averages are expressed as mean ± SEM for the (maximal) conductance values and IC50 values. […]

T1 sequence (Q12809 whole entry): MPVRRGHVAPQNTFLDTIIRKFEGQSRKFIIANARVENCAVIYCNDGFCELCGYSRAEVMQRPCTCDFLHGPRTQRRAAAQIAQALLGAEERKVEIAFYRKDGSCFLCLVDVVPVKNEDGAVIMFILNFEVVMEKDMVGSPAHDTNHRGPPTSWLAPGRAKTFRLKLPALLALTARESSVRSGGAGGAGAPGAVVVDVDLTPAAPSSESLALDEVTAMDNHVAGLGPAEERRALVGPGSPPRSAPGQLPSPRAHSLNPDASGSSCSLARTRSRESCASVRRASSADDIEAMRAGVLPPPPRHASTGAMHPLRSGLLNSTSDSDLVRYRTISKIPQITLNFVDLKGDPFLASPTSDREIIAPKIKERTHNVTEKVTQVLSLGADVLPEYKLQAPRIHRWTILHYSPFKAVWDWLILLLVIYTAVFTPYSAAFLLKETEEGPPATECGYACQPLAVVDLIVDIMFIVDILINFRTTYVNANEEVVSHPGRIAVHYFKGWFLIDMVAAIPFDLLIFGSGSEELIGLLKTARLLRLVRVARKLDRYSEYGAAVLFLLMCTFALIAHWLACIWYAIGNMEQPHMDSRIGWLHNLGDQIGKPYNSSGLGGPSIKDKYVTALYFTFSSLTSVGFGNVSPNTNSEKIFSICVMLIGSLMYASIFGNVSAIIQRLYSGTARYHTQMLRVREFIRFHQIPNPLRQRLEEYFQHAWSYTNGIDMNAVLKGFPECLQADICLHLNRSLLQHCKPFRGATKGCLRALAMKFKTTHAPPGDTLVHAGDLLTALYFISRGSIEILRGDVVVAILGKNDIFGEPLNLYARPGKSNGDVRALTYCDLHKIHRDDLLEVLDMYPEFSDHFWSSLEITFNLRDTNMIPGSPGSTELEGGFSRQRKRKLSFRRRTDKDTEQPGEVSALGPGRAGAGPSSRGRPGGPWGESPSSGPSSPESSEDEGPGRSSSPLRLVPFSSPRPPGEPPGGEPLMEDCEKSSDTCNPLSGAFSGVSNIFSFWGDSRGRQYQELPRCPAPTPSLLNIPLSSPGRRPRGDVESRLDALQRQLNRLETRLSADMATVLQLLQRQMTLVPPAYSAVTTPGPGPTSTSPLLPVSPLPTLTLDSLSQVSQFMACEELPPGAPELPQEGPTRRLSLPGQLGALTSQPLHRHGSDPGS

Compound: CNCCCN1c2ccccc2CCc2ccccc21 [Desipramine]
- effect on K+ step conductance (hERG channel [1]; K+ solutions, 1 µM): almost completely inhibited
- effect on K+ tail conductance (hERG channel [1]; K+ solutions, 100 and 1,000 µM): completely blocked
- Hill coef. (hERG channel [1]; K+ solutions, tail current at +40 mV): −1.4
- strength of hERG current inhibition (hERG channel [1]; comparison of the drugs, Figure 1 (K+ and Cs+ solutions)): modest inhibition
- effect on Cs+ step conductance (hERG channel [2]; 100 µM (highest)): slightly decreased
- effect on Cs+ tail conductance (hERG channel [2]; 100 µM (highest)): strong decrease but not a complete block
- Hill coef. (hERG channel [2]; tail current at +40 mV): −1.4
